Assays:
Cbl-b = Cbl-b (Homo sapiens (Human), UniProt Q13191); assay: Cbl-b LCK Ub TR-FRET assay (Cbl-b Lck HTRF); format: biochemical; details: for IC50: Cbl-b LCK Ub TR-FRET; for fold-selectivity (Cbl-b over C-cbl) / (fold-selectivity) Cbl-b and C-Cbl Selectivity: ratio C-cbl Lck HTRF IC50 / Cbl-b Lck HTRF IC50
Protocol: (§1) 6 μL of detection mixture was added to all wells and briefly centrifuged before incubating for 20 min at room temperature. […] IC50 was generated using no LCK as the low control and DMSO as the high control.

c-Cbl = c-Cbl (Homo sapiens (Human), UniProt P22681); assay: C-Cbl LCK Ub TR-FRET assay (C-cbl Lck HTRF); format: biochemical
Protocol: as §1

Sequence of Cbl-b (Q13191 40-426): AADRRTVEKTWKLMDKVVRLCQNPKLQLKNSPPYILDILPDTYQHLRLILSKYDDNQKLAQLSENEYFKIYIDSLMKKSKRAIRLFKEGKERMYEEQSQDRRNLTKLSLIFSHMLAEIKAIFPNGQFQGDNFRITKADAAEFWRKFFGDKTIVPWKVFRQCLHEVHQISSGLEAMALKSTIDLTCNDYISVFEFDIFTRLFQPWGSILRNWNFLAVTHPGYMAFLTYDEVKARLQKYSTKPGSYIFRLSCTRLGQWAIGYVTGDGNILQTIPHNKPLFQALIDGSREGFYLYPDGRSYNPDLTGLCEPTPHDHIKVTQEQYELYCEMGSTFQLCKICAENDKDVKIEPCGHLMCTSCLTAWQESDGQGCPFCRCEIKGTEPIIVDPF
Sequence of c-Cbl (P22681 47-435): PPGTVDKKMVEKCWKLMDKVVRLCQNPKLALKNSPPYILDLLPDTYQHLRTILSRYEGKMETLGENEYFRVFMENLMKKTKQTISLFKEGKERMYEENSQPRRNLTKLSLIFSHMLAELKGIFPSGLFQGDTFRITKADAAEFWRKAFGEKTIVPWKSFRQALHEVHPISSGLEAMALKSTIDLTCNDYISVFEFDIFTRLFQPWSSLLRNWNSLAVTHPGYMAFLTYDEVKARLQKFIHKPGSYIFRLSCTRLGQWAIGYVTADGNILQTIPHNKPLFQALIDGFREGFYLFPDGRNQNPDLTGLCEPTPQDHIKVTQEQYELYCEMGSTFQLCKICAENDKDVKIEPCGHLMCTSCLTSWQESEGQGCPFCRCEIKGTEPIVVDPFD

Compound	IC50 (Cbl-b)	fold-selectivity (Cbl-b over C-cbl) (Cbl-b)	IC50 (c-Cbl)	IC50 (Cbl-b; Example 121)	(fold-selectivity) Cbl-b and C-Cbl Selectivity (Cbl-b)
CCOc1cc([C@]2(c3nncn3C)C[C@H](C)C2)cc(N2Cc3c(cc(CNC4(C)CCC4)cc3C(F)(F)F)C2=O)n1 [Compound 4, 2-(6-ethoxy-4-((1r,3r)-3-methyl-1-(4-methyl-4H-1,2,4-triazol-3-yl)cyclobutyl)pyridin-2-yl)-6-(((1-methylcyclobutyl)amino)methyl)-4-(trifluoromethyl)isoindolin-1-one]	0.0066 µM	(0.91x)	0.006 µM		
CC[C@](O)(c1cccc(N2Cc3c(cc(CNC4(C)CCC4)cc3C(F)(F)F)C2=O)c1)c1nncn1C (single isomer, unassigned) [Compound 391]	0.85 µM	1.0x	0.86 µM		
CO[C@H]1C[C@](c2cc(OC3CCCC3)nc(N3Cc4c(cc(CNC5(C)CCC5)cc4C(F)(F)F)C3=O)c2)(c2nncn2C)C1 [Compound 79, 2-(6-(cyclopentyloxy)-4-((1R,3R)-3-methoxy-1-(4-methyl-4H-1,2,4-triazol-3-yl)cyclobutyl)pyridin-2-yl)-6-(((1-methylcyclobutyl)amino)methyl)-4-(trifluoromethyl)isoindolin-1-one]	0.032 µM	(7.4x)	0.237 µM		
Cn1cnnc1[C@H](c1cccc(N2Cc3c(cc([C@@H](NC4(C)CCC4)C4CCC4)cc3C(F)(F)F)C2=O)c1)C1COC1 (single isomer, unassigned) [Compound 435]			20 µM	8.5 µM	2.4x
CCOC1CC([C@H](c2cccc(N3Cc4c(cc(CNC5(C)CCC5)cc4C(F)(F)F)C3=O)c2)c2nncn2C)C1 (single isomer, unassigned) [Compound 264]	5.1 µM	3.9x	≥ 20 µM		
Cn1cnnc1[C@]1(c2cccc(N3Cc4c(cc(CNC5(C)CCC5)cc4C(F)(F)F)C3=O)c2)C[C@@](C)(F)C1 [Compound 31, 2-(3-((1r,3r)-3-fluoro-3-methyl-1-(4-methyl-4H-1,2,4-triazol-3-yl)cyclobutyl)phenyl)-6-(((1-methylcyclobutyl)amino)methyl)-4-(trifluoromethyl)isoindolin-1-one]	0.015 µM	(2.2x)	0.033 µM		
Cn1cnnc1[C@@H](c1ccccc1)c1cccc(N2Cc3c(Cl)cc(CNC4(C)CCC4)cc3C2=O)c1 (single isomer, unassigned) [Compound 159]	≥ 20 µM	1.0x	20 µM		
CC[C@H](c1cccc(N2Cc3c(Cl)cc(CNC4(C)CCC4)cc3C2=O)c1)c1nncn1C (single isomer, unassigned) [Compound 358]	0.14 µM	3.5x	0.48 µM		
Cn1cnnc1[C@@H](c1cccc(N2Cc3c(cc(CNC4(C)CCC4)cc3C(F)(F)F)C2=O)c1)C1CC(OCC(F)F)C1 (single isomer, unassigned) [Compound 261]	1.3 µM	3.5x	4.5 µM		
Cn1cnnc1C1(c2cccc(N3Cc4c(cc(CNC5(C)CCC5)cc4C(F)(F)F)C3=O)c2)CC(C)(C)C1 [Compound 39, 2-(3-(3,3-dimethyl-1-(4-methyl-4H-1,2,4-triazol-3-yl)cyclobutyl)phenyl)-6-(((1-methylcyclobutyl)amino)methyl)-4-(trifluoromethyl)-isoindolin-1-one]	0.0072 µM	(2.4x)	0.017 µM		
Cn1cnnc1[C@@H](CC1CCS(=O)(=O)CC1)c1cccc(N2Cc3c(cc(CNC4(C)CCC4)cc3C(F)(F)F)C2=O)c1 [Compound 287, (S)-2-(3-(2-(1,1-dioxidotetrahydro-2H-thiopyran-4-yl)-1-(4-methyl-4H-1,2,4-triazol-3-yl)ethyl)phenyl)-6-(((1-methylcyclobutyl)amino)methyl)-4-(trifluoromethyl)isoindolin-1-one]	≥ 20 µM	1.0x	20 µM		
CO[C@]1(C)C[C@](c2cccc(N3Cc4c(cc(CNC5(C)CCC5)cc4C(F)(F)F)C3=O)c2)(c2nncn2C)C1 [Compound 29, 2-(3-((1s,3s)-3-methoxy-3-methyl-1-(4-methyl-4H-1,2,4-triazol-3-yl)cyclobutyl)phenyl)-6-(((1-methylcyclobutyl)amino)methyl)-4-(trifluoromethyl)isoindolin-1-one]	0.083 µM	(2.0x)	0.166 µM		
CC(C)[C@H]1CN(C)CCN1Cc1cc2c(c(C(F)(F)F)c1)CN(c1cccc(C3(c4nncn4C)CC4(COC4)C3)c1)C2=O [Compound 41, (S)-6-((2-isopropyl-4-methylpiperazin-1-yl)methyl)-2-(3-(6-(4-methyl-4H-1,2,4-triazol-3-yl)-2-oxaspiro[3.3]heptan-6-yl)phenyl)-4-(trifluoromethyl)isoindolin-1-one]	0.021 µM	(2.8x)	0.059 µM		
Cn1cnnc1[C@H](c1cccc(N2Cc3c(cc(CNC4(C)CCC4)cc3C(F)(F)F)C2=O)c1)C1CC2(COC2)C1 [Compound 121, (S)-2-(3-((4-methyl-4H-1,2,4-triazol-3-yl)(2-oxaspiro[3.3]heptan-6-yl)methyl)phenyl)-6-(((1-methylcyclobutyl)amino)methyl)-4-(trifluoromethyl)isoindolin-1-one]	11 µM	1.7x	20 µM		
Cn1cnnc1[C@@H](c1cccc(N2Cc3c(cc(CNC4(C)CCC4)cc3C(F)(F)F)C2=O)c1)[C@@H]1CCOC1 [Compound 168, 2-(3-((R)-(4-methyl-4H-1,2,4-triazol-3-yl)((S)-tetrahydrofuran-3-yl)methyl)phenyl)-6-(((1-methylcyclobutyl)amino)methyl)-4-(trifluoromethyl)isoindolin-1-one]	0.023 µM	1.5x	0.034 µM		
Cn1cnnc1[C@H](CC1CCOCC1)c1cccc(N2Cc3c(cc(CNC4(C)CCC4)cc3C(F)(F)F)C2=O)c1 (single isomer, unassigned) [Compound 252]	9.1 µM	1.4x	13 µM		
Cn1cnnc1C1(c2cccc(N3Cc4c(cc(CNC5(C)CCC5)cc4C(F)(F)F)C3=O)c2)CC2(CC(=O)C2)C1 [Compound 92, 2-(3-(2-(4-methyl-4H-1,2,4-triazol-3-yl)-6-oxospiro[3.3]heptan-2-yl)phenyl)-6-(((1-methylcyclobutyl)amino)methyl)-4-(trifluoromethyl)isoindolin-1-one]	0.013 µM	2.2x	0.029 µM		
Cn1cnnc1[C@H](c1cccc(N2Cc3c(cc(CNC4(C)CCC4)cc3C(F)(F)F)C2=O)c1)C1(O)CCC1 (single isomer, unassigned) [Compound 428]			20 µM	5.3 µM	3.8x
CCOc1cc([C@]2(c3nncn3C)C[C@@H](OC)C2)cc(N2Cc3c(cc(CNC4(C)CCC4)cc3C(F)(F)F)C2=O)n1 [Compound 76, 2-(6-ethoxy-4-((1S,3S)-3-methoxy-1-(4-methyl-4H-1,2,4-triazol-3-yl)cyclobutyl)pyridin-2-yl)-6-(((1-methylcyclobutyl)amino)methyl)-4-(trifluoromethyl)isoindolin-1-one]	0.0064 µM	(1.0x)	0.0064 µM		
Cn1cnnc1[C@]1(c2cccc(N3Cc4c(cc(CNC5(C)CCC5)cc4C(F)(F)F)C3=O)c2)C[C@H](S(C)(=O)=O)C1 [Compound 326, 2-(3-((1s,3s)-1-(4-methyl-4H-1,2,4-triazol-3-yl)-3-(methylsulfonyl)cyclobutyl)phenyl)-6-(((1-methylcyclobutyl)amino)methyl)-4-(trifluoromethyl)isoindolin-1-one]	16 µM	1.2x	20 µM		
Cn1cnnc1[C@@H](c1cccc(N2Cc3c(cc(CNC4(C)CCC4)cc3C(F)(F)F)C2=O)c1)N1CC(F)(F)C1 (single isomer, unassigned) [Compound 57]	10 µM	(1.9x)	19 µM		
Cn1cnnc1[C@@H](OC1CC1)c1cccc(N2Cc3c(cc(CNC4(C)CCC4)cc3C(F)(F)F)C2=O)c1 (single isomer, unassigned) [Compound 44]	4.2 µM	(2.4x)	10 µM		
CCc1cc(C2(c3nncn3C)CC(F)(F)C2)cc(N2Cc3c(cc(CNC4(C)CCC4)cc3C(F)(F)F)C2=O)n1 [Compound 59, 2-(4-(3,3-difluoro-1-(4-methyl-4H-1,2,4-triazol-3-yl)cyclobutyl)-6-ethylpyridin-2-yl)-6-(((1-methylcyclobutyl)amino)methyl)-4-(trifluoromethyl)isoindolin-1-one]	0.018 µM	(0.96x)	0.017 µM		
Cn1cnnc1[C@](O)(c1ccccc1)c1cccc(N2Cc3c(cc(CNC4(C)CCC4)cc3C(F)(F)F)C2=O)c1 (single isomer, unassigned) [Compound 154]	≥ 20 µM	1.0x	20 µM		
Cn1cnnc1[C@H](c1cccc(N2Cc3c(Cl)cc(CNC4(C)CCC4)cc3C2=O)c1)C1COC1 (single isomer, unassigned) [Compound 271]	1.8 µM	2.6x	4.3 µM		
Cn1cnnc1[C@@H](c1cccc(N2Cc3c(cc(CNC4(C)CCC4)cc3C(F)(F)F)C2=O)c1)n1ccnc1 (single isomer, unassigned) [Compound 344]	≥ 20 µM	1x	20 µM		
Cn1cnnc1[C@@](F)(c1ccccc1)c1cccc(N2Cc3c(cc(CNC4(C)CCC4)cc3C(F)(F)F)C2=O)c1 (single isomer, unassigned) [Compound 157]	≥ 20 µM	1.0 x	20 µM		

Source: patent publication US12187709B2 (Genentech, Inc., priority 2021, dated 2025)
